# From patent publication US20240000872A1, “NOVEL BACTERIOPHAGE THAT LYSES ACINETOBACTER GENUS BACTERIA HAVING RESISTANCE TO ANTIBIOTICS” (priority 2020, published 2024)
# System: Acinetobacter baumannii strains
# Assay: Antibiotic susceptibility test (CLSI disk diffusion test method, read per CLSI 2016)
# Format: cell-based
# Design: antibiotic susceptibility test value / susceptibility test value (number given before S/I/R) / antibiotic susceptibility value: unit not given here
# Protocol: (§1) Strain identification was performed using a kit such as AT 32 GN system (bioMérieux, Marcy l'Etoile, France). […] In Table 2 below, S, I, and R are the results obtained by evaluating susceptibility to the antibacterial agents, in which ‘S’ means susceptible, ‘I’ means intermediate, and ‘R’ means resistant.
# as §1, with “as ATB” for “as AT”, “system (bioMédrieux,” for “system (bioMérieux,”, “Table 6” for “Table 2”
# as §1, with “as ATB” for “as AT”, “Table 10” for “Table 2”, “susceptible, T” for “susceptible, ‘I’”
substance,measurement,setting,value
piperacillin-tazobactam,antibiotic susceptibility S/I/R,host strain YMC17/02/B87,R
same,antibiotic susceptibility value,host strain YMC17/02/B87,128
same,susceptibility category (S/I/R),host strain YMC17/02/B87,R
same,susceptibility test value (number given before S/I/R),host strain YMC17/02/B87,128
same,antibiotic susceptibility S/I/R,host strain YMC17/02/B721,R
same,antibiotic susceptibility value,host strain YMC17/02/B721,128
same,susceptibility category (S/I/R),host strain YMC17/02/B721,R
same,susceptibility test value (number given before S/I/R),host strain YMC17/02/B721,128
same,antibiotic susceptibility S/I/R,host strain YMC17/02/B4039,R
same,antibiotic susceptibility value,host strain YMC17/02/B4039,128
same,susceptibility category (S/I/R),host strain YMC17/02/B4039,R
same,susceptibility test value (number given before S/I/R),host strain YMC17/02/B4039,128
same,antibiotic susceptibility S/I/R,host strain YMC17/02/B4520,R
same,antibiotic susceptibility value,host strain YMC17/02/B4520,128
same,susceptibility category (S/I/R),host strain YMC17/02/B4520,R
same,susceptibility test value (number given before S/I/R),host strain YMC17/02/B4520,128
same,antibiotic susceptibility S/I/R,host strain YMC17/02/B4864,S
same,antibiotic susceptibility value,host strain YMC17/02/B4864,4
same,susceptibility category (S/I/R),host strain YMC17/02/B4864,S
same,susceptibility test value (number given before S/I/R),host strain YMC17/02/B4864,4
same,antibiotic susceptibility S/I/R,host strain YMC17/02/B8414,R
same,antibiotic susceptibility value,host strain YMC17/02/B8414,128
same,susceptibility category (S/I/R),host strain YMC17/02/B8414,R
same,susceptibility test value (number given before S/I/R),host strain YMC17/02/B8414,128
same,antibiotic susceptibility S/I/R,host strain YMC17/02/P523,R
same,antibiotic susceptibility value,host strain YMC17/02/P523,128
same,susceptibility category (S/I/R),host strain YMC17/02/P523,R
same,susceptibility test value (number given before S/I/R),host strain YMC17/02/P523,128
same,antibiotic susceptibility S/I/R,host strain YMC17/02/R541,R
same,antibiotic susceptibility value,host strain YMC17/02/R541,128
same,susceptibility category (S/I/R),host strain YMC17/02/R541,R
same,susceptibility test value (number given before S/I/R),host strain YMC17/02/R541,128
same,antibiotic susceptibility S/I/R,host strain YMC17/02/R2392,R
same,antibiotic susceptibility value,host strain YMC17/02/R2392,128
same,susceptibility category (S/I/R),host strain YMC17/02/R2392,R
same,susceptibility test value (number given before S/I/R),host strain YMC17/02/R2392,128
same,antibiotic susceptibility S/I/R,host strain YMC17/03/B4730,R
same,antibiotic susceptibility value,host strain YMC17/03/B4730,128
same,susceptibility category (S/I/R),host strain YMC17/03/B4730,R
same,susceptibility test value (number given before S/I/R),host strain YMC17/03/B4730,128
same,antibiotic susceptibility S/I/R,host strain YMC17/03/B5000,R
same,antibiotic susceptibility value,host strain YMC17/03/B5000,128
same,susceptibility category (S/I/R),host strain YMC17/03/B5000,R
same,susceptibility test value (number given before S/I/R),host strain YMC17/03/B5000,128
same,antibiotic susceptibility S/I/R,host strain YMC17/03/P971,R
same,antibiotic susceptibility value,host strain YMC17/03/P971,128
same,susceptibility category (S/I/R),host strain YMC17/03/P971,R
same,susceptibility test value (number given before S/I/R),host strain YMC17/03/P971,128
same,antibiotic susceptibility S/I/R,host strain YMC17/03/R348,R
same,antibiotic susceptibility value,host strain YMC17/03/R348,128
same,susceptibility category (S/I/R),host strain YMC17/03/R348,R
same,susceptibility test value (number given before S/I/R),host strain YMC17/03/R348,128
same,antibiotic susceptibility S/I/R,host strain YMC17/03/R585,R
same,antibiotic susceptibility value,host strain YMC17/03/R585,128
same,susceptibility category (S/I/R),host strain YMC17/03/R585,R
same,susceptibility test value (number given before S/I/R),host strain YMC17/03/R585,128
same,antibiotic susceptibility S/I/R,host strain YMC17/03/R1888,R
same,antibiotic susceptibility value,host strain YMC17/03/R1888,128
same,susceptibility category (S/I/R),host strain YMC17/03/R1888,R
same,susceptibility test value (number given before S/I/R),host strain YMC17/03/R1888,128
same,antibiotic susceptibility S/I/R,host strain YMC17/03/R3279,R
same,antibiotic susceptibility value,host strain YMC17/03/R3279,128
same,susceptibility category (S/I/R),host strain YMC17/03/R3279,R
same,susceptibility test value (number given before S/I/R),host strain YMC17/03/R3279,128
same,antibiotic susceptibility S/I/R,host strain YMC17/03/R4077,R
same,antibiotic susceptibility value,host strain YMC17/03/R4077,128
same,susceptibility category (S/I/R),host strain YMC17/03/R4077,R
same,susceptibility test value (number given before S/I/R),host strain YMC17/03/R4077,128
same,antibiotic susceptibility S/I/R,host strain YMC17/03/R4607,R
same,antibiotic susceptibility value,host strain YMC17/03/R4607,128
same,susceptibility category (S/I/R),host strain YMC17/03/R4607,R
same,susceptibility test value (number given before S/I/R),host strain YMC17/03/R4607,128
same,antibiotic susceptibility S/I/R,host strain YMC17/04/R488,R
same,antibiotic susceptibility value,host strain YMC17/04/R488,128
same,susceptibility category (S/I/R),host strain YMC17/04/R488,R
same,susceptibility test value (number given before S/I/R),host strain YMC17/04/R488,128
same,antibiotic susceptibility S/I/R,host strain YMC17/04/R640,R
same,antibiotic susceptibility value,host strain YMC17/04/R640,128
same,susceptibility category (S/I/R),host strain YMC17/04/R640,R
same,susceptibility test value (number given before S/I/R),host strain YMC17/04/R640,128
same,antibiotic susceptibility S/I/R,host strain YMC/17/05/R1095,R
same,antibiotic susceptibility value,host strain YMC/17/05/R1095,128
same,susceptibility category (S/I/R),host strain YMC/17/05/R1095,R
same,susceptibility test value (number given before S/I/R),host strain YMC/17/05/R1095,128
